Data reported in patent US10721967B2, “Vaporizing devices and methods for delivering a compound using the same” (Altria Client Services LLC, priority 2016, dated 2020).
Where two headings read alike, the source gives them in different places.

What was measured:
[1] = Blood pressure, pulse rate and oxygen saturation after inhalation; format: in vivo, human; settings: for DBP (diastolic blood pressure) / HR (heart rate) / SBP (systolic blood pressure) / SO2 (blood oxygen saturation): mean value
Procedure: (§1) Blood pressure, pulse rate, and oxygen saturation were also recorded at baseline, 30, 60, 90, and 120 minutes post inhalation. A cognitive test was conducted using the Short Blessed Test prior to the experiment at 30, 60 minutes after inhalation and at the end of the experiment.
(§2) The primary outcome of the study was to characterize the inter-individual variability of Δ^9-THC during the absorption phase. The secondary outcome included (a) monitoring adverse effects, (b) blood pressure, and heart rate; and (c) monitoring the response of single-ascending dose with the use of the study device. In addition, the influence of the use of the trial device on the cognitive status of the subject was assessed. A Short Blessed Test cognitive test^19 was used for the purpose of the trial.

[2] = Short Blessed Test cognitive status evaluation; format: in vivo, human; settings: for SET 0 min (Short Blessed Test score): 0 min (prior to inhalation); for SET 0 min (Short Blessed Test score) / SET 30 min (Short Blessed Test score) / SET 120 min (Short Blessed Test score): mean; for SET 30 min (Short Blessed Test score): 30 min after inhalation
Procedure: as §1, §2
The Short Blessed Test, a six-item test, was used as a diagnostic tool enabling the cognitive status evaluation of the volunteers. Each item was scored and total scores were calculated on the following cut off points: Normal or minimally impaired: 0-8, Moderately impaired: 9-19, Severely impaired: 20-33.

[3] = Single-ascending dose pharmacokinetic study: plasma THC after a 3 second inhalation from the vaporizer device; format: in vivo, human; settings: for AUC(0-inf) / Tmax / Cmax: human, plasma, inhaled, single inhalation, mean ± SD; for Cmax: read-out: Δ^9-THC Cmax
Procedure: A study was conducted to investigate the pharmacokinetics, efficacy, safety, and ease of use of a vaporizer device of the present technology for treating disorders in humans. Volunteers were recruited for participation in the study and met the following inclusion criteria: (a) age >30 and <70 years; (b) no known medical problems; and (c) if applicable, negative urine pregnancy test (β human […] gonadotropin pregnancy test). Exclusion criteria were the presence of (a) significant cardiac or pulmonary disease, (b) history of a psychotic or anxiety disorder, (c) pregnancy, pregnancy attempt or breastfeeding, (d) presence of a neuropathic or non-neuropathic pain disorder, (e) low systolic blood pressure, ([…]) (f) diabetes (g) first degree family history of psychotic or anxiety disorder, (h) history of drug addiction, (i) history of drug misuse, (j) concurrent use the following drugs: rifampicin, rifabutin, carbamazepine, or phenobarbital, primidone, (k) using the following plants: Hypericum perforatum, troglitazone, (l) alcohol consumption up to 12 hours prior to the study, (m) abnormal parameters such as heart rate above 100 BPM, blood pressure below 90 mm Hg (systolic), saturation below 91 percent, (n) recreational Cannabis use up to 72 hours before the study, (o) any chronic use of drugs, and (q) age less than 30 or more than 70.
The participants were divided into four dose related groups each group included 3 volunteers. After 3 successful training inhalations, each participant inhaled 3 seconds of a single dose. Dose groups were 10±0.1 mg, 15±0.1 mg, 20±0.1 mg, 25±0.1 mg of THC.
Blood samples were drawn immediately before and at 2, 3, 4, 10, 30 minutes after inhalation for monitoring of plasma levels of THC and its active metabolite Δ^9 Carboxy-THC. The blood was collected in 13×75 mm purple-top Vacutainer tubes containing EDTA. Samples were kept on ice and centrifuged within 30 minutes. Plasma samples were aliquoted into 3.6-mL polypropylene Nunc cryotubes (Thomas Scientific, NJ, USA), stored frozen at −20° C., and analyzed within 6 weeks. The cannabinoid analysis was performed at Pactox (Pacific Toxicology Laboratories) Labs by multidimensional gas chromatography mass spectrometry method.
The study device was as described above in connection with the figures and designed to vaporize up to 80 doses of processed cannabis fibs, resulting in the pulmonary delivery of compounds. The inhaler consisted of a multi-dose cartridge, indication light, and power switch. The cartridge was preloaded with multiple pre-weighed 10.0±0.1 mg, 15.0±0.1 mg, 20.0±0.1 mg, and 25.0±0.1 mg doses of processed cannabis flos. The vaporization process was segmental and triggered by the volunteer pressing the operating button. The segmental evaporation process is aimed at turning THCA into THC^1 and is done by: (1) stage I—heating the material to 100° C. for 9 seconds; (2) stage II—heating the material to 150° C. for 9 seconds; (3) stage III—heating the material to 190° C. to 200° C. (evaporation temperature) for the 3 seconds of inhalation. The transition to the next dose/inhalation is performed by using a mechanical rotation wheel. The device engages automatic thermal control that ensures a complete, high-efficiency delivery of carmabinoid vapors to the lungs. The device allowed for “single inhalation” dose resolution, instantaneous administration, and required no preprocessing or any subject intervention other than the inhalation itself.
The cannabis flowers used in the study were of the Alaska strain provided by “Tikun Olam.” This strain is a hybrid of 70% sativa and 30% indica strains. This strain consists of 20-22% THC and 0% CBD. The processed cannabis flowers used in this study were tested for THC by modified gas-chromatography method without derivatization 1.8 resulting in Δ^9-THC content of 20.08%. The flowers were loaded into the inhaler so as to retain the natural cannabis compounds in. their raw form. […]

[4] = intravenous THC administration, cited from earlier work
[5] = ascending doses 10-25 mg, inhalation

CCCCCc1cc(O)c2c(c1)OC(C)(C)[C@@H]1CCC(C)=C[C@@H]21 [THC, tetrahydrocannabinol]
DBP (diastolic blood pressure) ([1]; 10 mg dose group): 69.46 ± 7.86 mmHg
HR (heart rate) ([1]; 10 mg dose group): 71.66 ± 10.14
SBP (systolic blood pressure) ([1]; 10 mg dose group): 113.4 ± 10.23 mmHg
SO2 (blood oxygen saturation) ([1]; 10 mg dose group): 99.93 ± 0.25%
DBP (diastolic blood pressure) ([1]; 15 mg dose group): 63.85 ± 9.78 mmHg
HR (heart rate) ([1]; 15 mg dose group): 79 ± 13.37
SBP (systolic blood pressure) ([1]; 15 mg dose group): 114.93 ± 6.88 mmHg
SO2 (blood oxygen saturation) ([1]; 15 mg dose group): 100%
DBP (diastolic blood pressure) ([1]; 20 mg dose group): 71.78 ± 14.95 mmHg
HR (heart rate) ([1]; 20 mg dose group): 68.35 ± 5.83
SBP (systolic blood pressure) ([1]; 20 mg dose group): 120.14 ± 28.03 mmHg
SO2 (blood oxygen saturation) ([1]; 20 mg dose group): 99.92 ± 0.26%
DBP (diastolic blood pressure) ([1]; 25 mg dose group): 80.57 ± 8.92 mmHg
HR (heart rate) ([1]; 25 mg dose group): 77.57 ± 17.74
SBP (systolic blood pressure) ([1]; 25 mg dose group): 130 ± 16.62 mmHg
SO2 (blood oxygen saturation) ([1]; 25 mg dose group): 99.42 ± 0.9%
change in blood pressure, heart rate, or blood oxygen saturation ([1]; during the time frame of the study, all dose groups): no significant change
SET 0 min (Short Blessed Test score) ([2]; 10 mg dose group): 0.66 ± 0.94
SET 30 min (Short Blessed Test score) ([2]; 10 mg dose group): 2.33 ± 3.29
SET 120 min (Short Blessed Test score) ([2]; 10 mg dose group): 2.66 ± 0.47
SET 0 min (Short Blessed Test score) ([2]; 15 mg dose group): 0
SET 30 min (Short Blessed Test score) ([2]; 15 mg dose group): 1.33 ± 1.88
SET 120 min (Short Blessed Test score) ([2]; 15 mg dose group): 3 ± 0.81
SET 0 min (Short Blessed Test score) ([2]; 20 mg dose group): 2 ± 1.63
SET 30 min (Short Blessed Test score) ([2]; 20 mg dose group): 0.66 ± 0.94
SET 120 min (Short Blessed Test score) ([2]; 20 mg dose group): 0.66 ± 0.94
SET 0 min (Short Blessed Test score) ([2]; 25 mg dose group): 2 ± 2.82
SET 30 min (Short Blessed Test score) ([2]; 25 mg dose group): 0
SET 120 min (Short Blessed Test score) ([2]; 25 mg dose group): 0
cognitive impairment (Short Blessed Test) ([2]; all volunteers, 0-8 normal or minimally impaired): minimal cognitive impairment
change in time needed to reach maximum concentration with ascending doses [3, 5]: no significant change
change of AUC with ascending doses [3, 5]: same linear increase
change of maximum concentration with ascending doses [3, 5]: linear increase
AUC(0-inf) ([3]; 0.1 mg, Group IV, 25 ± 0.1 mg): 16.2 ng·h/mL
Tmax ([3]; 0.1 mg, Group IV, 25 ± 0.1 mg): 3 min
Cmax ([3]; 0.1 mg, Group IV, 25 ± 0.1 mg): 88.6 ± 14.8 ng/mL
AUC(0-inf) ([3]; Group I, 10 ± 0.1 mg): 7.36 ng·h/mL
Tmax ([3]; Group I, 10 ± 0.1 mg): 3.67 min
Cmax ([3]; Group I, 10 ± 0.1 mg): 35.4 ± 5.97 ng/mL
AUC(0-inf) ([3]; Group II, 15 ± 0.1 mg): 10.4 ng·h/mL
Tmax ([3]; Group II, 15 ± 0.1 mg): 3.33 min
Cmax ([3]; Group II, 15 ± 0.1 mg): 51.5 ± 13.8 ng/mL
AUC(0-inf) ([3]; Group III, 20 ± 0.1 mg): 11.6 ng·h/mL
Tmax ([3]; Group III, 20 ± 0.1 mg): 2.67 min
Cmax ([3]; Group III, 20 ± 0.1 mg): 72.4 ± 15.9 ng/mL
Cmax of Δ^9-THC ([4]; Reference 1): 43.8 ng/mL
Cmax of Δ^9-THC ([4]; Reference 2): 32.8 ng/mL
Cmax of Δ^9-THC ([4]; Reference 3): 23.8 ng/mL
